Data published in the supplement of paper PMC8253809.

How the values were obtained:
HGGX42 [1] = H3.3 G34R paediatric high-grade glioma line; test: EC50 (inflection of fitted growth-inhibition curve) (log10 M)
Procedure, shortened: (§1)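 Viability readout was CellTiter-Glo luminescence, log2-transformed, normalised per plate to % activity between negative (solvent) and positive control wells, then pooled. This followed a 7-day exposure (3 days for iAstro) at 37 °C, 5% CO2 to a 10-point threefold dilution series (mean top concentration 35 μM), pin-tool delivered in triplicate to patient-derived pHGG/DIPG cell lines and astrocyte controls on 1% Geltrex-coated 384-well plates. Three- and four-parameter log-logistic fits were compared, and the one with the lowest AICc supplied EC50 and maximal response (yFin).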

HGGX2 [2] = paediatric high-grade glioma line; test: as above
Procedure, shortened: as §1

DIPGX29 [3] = H3.3 K27M diffuse intrinsic pontine glioma line; test: as above
Procedure, shortened: as §1

HGGX39 [4] = paediatric high-grade glioma line; test: as above
Procedure, shortened: as §1

SUDIPGXXI [5] = diffuse intrinsic pontine glioma line; test: as above
Procedure, shortened: as §1

DIPGX37 [6] = H3.3 K27M diffuse intrinsic pontine glioma line; test: as above
Procedure, shortened: as §1

HABS [7] = astrocyte control; test: as above
Procedure, shortened: as §1

DIPGX9 [8] = diffuse intrinsic pontine glioma line; test: as above
Procedure, shortened: as §1

HGGX6 [9] = H3.3 G34R paediatric high-grade glioma line; test: as above
Procedure, shortened: as §1

iAstro [10] = astrocyte control; test: as above
Procedure, shortened: as §1

DIPGX7 [11] = H3.3 K27M diffuse intrinsic pontine glioma line; test: as above
Procedure, shortened: as §1

SUDIPGXVII [12] = diffuse intrinsic pontine glioma line; test: as above
Procedure, shortened: as §1

SUDIPGIV [13] = diffuse intrinsic pontine glioma line; test: as above
Procedure, shortened: as §1

HGGX42 [14] = test: area under dose-response curve of % growth inhibition (log2 RLU vs DMSO / staurosporine), 1e-11 to 1e-4 M (% x log10 M); higher = more growth inhibition
Procedure, shortened: (§2)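 Patient-derived pHGG/DIPG cell lines and astrocytes, cultured on 384-well plates with a 1% Geltrex coating, were given a 10-point threefold dilution series (mean top concentration 35 μM) in triplicate for 7 days (iAstro 3 days) at 37 °C, 5% CO2. CellTiter-Glo signal, log2-transformed and normalised per plate to % activity against solvent and positive controls, was fitted with a log-logistic curve or, where the sigmoid fit failed, a smoothing spline. Area under the curve was then computed by the trapezoid rule.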

SUDIPGXIII [15] = diffuse intrinsic pontine glioma line; test: as above
Procedure, shortened: as §2

SUDIPGXIX = diffuse intrinsic pontine glioma line; test: as above
Procedure, shortened: as §2

SUDIPGVI [16] = diffuse intrinsic pontine glioma line; test: as above
Procedure, shortened: as §2

HGGX2 [17] = test: as above
Procedure, shortened: as §2

DIPGX29 [18] = test: as above
Procedure, shortened: as §2

HGGX39 [19] = test: as above
Procedure, shortened: as §2

SUDIPGXXI [20] = test: as above
Procedure, shortened: as §2

DIPGX37 [21] = test: as above
Procedure, shortened: as §2

HABS [22] = test: as above
Procedure, shortened: as §2

DIPGX9 [23] = test: as above
Procedure, shortened: as §2

HGGX6 [24] = test: as above
Procedure, shortened: as §2

iAstro [25] = test: as above
Procedure, shortened: as §2

DIPGX7 [26] = test: as above
Procedure, shortened: as §2

SUDIPGXVII [27] = test: as above
Procedure, shortened: as §2

SUDIPGIV [28] = test: as above
Procedure, shortened: as §2

SUDIPGXIII [29] = test: EC50 (inflection of fitted growth-inhibition curve) (log10 M)
Procedure, shortened: as §1

SUDIPGVI [30] = test: as above
Procedure, shortened: as §1

Row | Structure (SMILES) | EC50 (log10 M) (HGGX42 [1]) | EC50 (log10 M) (HGGX2 [2]) | EC50 (log10 M) (DIPGX29 [3]) | EC50 (log10 M) (HGGX39 [4]) | EC50 (log10 M) (SUDIPGXXI [5]) | EC50 (log10 M) (DIPGX37 [6]) | EC50 (log10 M) (HABS [7]) | EC50 (log10 M) (DIPGX9 [8]) | EC50 (log10 M) (HGGX6 [9]) | EC50 (log10 M) (iAstro [10]) | EC50 (log10 M) (DIPGX7 [11]) | EC50 (log10 M) (SUDIPGXVII [12]) | EC50 (log10 M) (SUDIPGIV [13]) | area under dose-response curve (HGGX42 [14]) | area under dose-response curve (SUDIPGXIII [15]) | area under dose-response curve (SUDIPGXIX) | area under dose-response curve (SUDIPGVI [16]) | area under dose-response curve (HGGX2 [17]) | area under dose-response curve (DIPGX29 [18]) | area under dose-response curve (HGGX39 [19]) | area under dose-response curve (SUDIPGXXI [20]) | area under dose-response curve (DIPGX37 [21]) | area under dose-response curve (HABS [22]) | area under dose-response curve (DIPGX9 [23]) | area under dose-response curve (HGGX6 [24]) | area under dose-response curve (iAstro [25]) | area under dose-response curve (DIPGX7 [26]) | area under dose-response curve (SUDIPGXVII [27]) | area under dose-response curve (SUDIPGIV [28]) | EC50 (log10 M) (SUDIPGXIII [29]) | EC50 (log10 M) (SUDIPGVI [30])
1 | C=CCn1c(=O)c2cnc(Nc3ccc(N4CCN(C)CC4)cc3)nc2n1-c1cccc(C(C)(C)O)n1 [MK-1775] | -5.45 | -6.67 | -6.91 | -5.05 | -6.07 | -6.2 | -5.41 | -5.33 | -5.72 | -6.04 | -5.75 | -5.54 | -5.92 | 53.5 | 15 | 73.8 | 27.9 | 83 | 114 | 46.4 | 190 | 48.9 | 35.1 | 60 | 37.6 | 71.1 | 58.4 | 39.4 | 96 |  | 
2 | COc1cc(F)ccc1-c1ncnc(Nc2cccc(CS(C)(=N)=O)c2)n1 (stereo not drawn) | -6.01 | -5.75 | -5.41 | -5.23 | -5.99 | -5.68 | -5.83 | -5.9 | -5.44 | -6.51 | -5.15 | -5.15 | -5.38 | 134 | 84.4 | 156 | 120 | 100 | 109 | 82.1 | 226 | 128 | 104 | 195 | 121 | 57.6 | 143 | 109 | 156 | -4.98 | -5.33
3 | O=C(Nc1c[nH]nc1-c1nc2ccc(CN3CCOCC3)cc2[nH]1)NC1CC1 [AT9283] | -5.4 | -4.91 | -5.17 | -6.03 | -6.69 | -4.79 | -5.83 | -5.66 | -5.15 | -5.54 | -4.88 | -4.95 | -5.66 | 178 | 77.4 | 184 | 97.6 | 87.8 | 150 | 186 | 310 | 132 | 173 | 203 | 134 | 42.3 | 143 | 128 | 167 | -4.79 | -4.97
4 | C=CCNC1=C2C[C@@H](C)C[C@H](OC)[C@H](O)[C@@H](C)/C=C(\C)[C@H](OC(N)=O)[C@@H](OC)/C=C\C=C(/C)C(=O)NC(=CC1=O)C2=O [TANESPIMYCIN] | -6.01 | -4.97 | -5.85 | -6.48 | -5.76 | -6.99 | -5.41 | -6.85 | -5.84 | -5.41 |  | -4.99 | -5.88 | 103 | 80.1 | 214 | 42.2 | 83 | 132 | 242 | 223 | 312 | 161 | 309 | 59.6 | 50.9 | 89.8 | 89.8 | 138 | -4.95 | -5.19
5 | CCN1CCN(Cc2ccc(Nc3ncc(F)c(-c4cc(F)c5nc(C)n(C(C)C)c5c4)n3)nc2)CC1 [ABEMACICLIB] | -6.74 | -6.84 | -6.78 | -6.29 | -6.6 | -6.56 |  | -6.86 | -5.83 | -6.74 | -6.11 | -6.01 | -6.04 | 83.9 | 109 | 248 | 102 | 120 | 107 | 193 | 252 | 255 | 93.8 | 124 | 127 | 161 | 233 | 123 | 156 | -6.07 | -6.09
6 | CN1[C@@H]2CC[C@H]1C[C@@H](OC(=O)c1cc(Cl)cc(Cl)c1)C2 [BEMESETRON] | -5.38 | -4.99 | -5.09 | -5.05 | -5.63 | -5.32 | -4.73 | -4.9 | -4.86 | -5.08 | -5.23 | -4.9 | -4.99 | 119 | 8.98 | 65.3 | 15.4 | 64 | 101 | 85.8 | 166 | 137 | 14.8 | 58.7 | 73.6 | 35.7 | 112 | 39.9 | 93.7 |  | 
7 | COc1ncc(-c2ccc3nccc(-c4ccnnc4)c3c2)cc1NS(=O)(=O)c1ccc(F)cc1F [OMIPALISIB] | -6.22 | -6 | -5.88 | -5.79 | -7.11 | -6.38 | -6.58 | -7.52 | -4.77 | -5.44 |  | -6.19 | -6.11 | 237 | 225 | 326 | 257 | 263 | 219 | 224 | 366 | 290 | 262 | 366 | 193 | 64 | 248 | 251 | 245 | -5.65 | -6.23
8 | Cc1noc2c1-c1ccccc1C(c1ccc(Cl)cc1)=N[C@H]2CC(N)=O [CPI-0610] | -5.3 | -5.42 | -5.05 | -4.96 | -6.13 |  | -5.3 | -5.71 | -5.43 | -5.98 | -4.88 | -5.39 | -5.51 | 110 | 13.5 | 156 | 121 | 98.6 | 99.5 | 110 | 251 | 81.3 | 97.5 | 194 | 59.4 | 67 | 105 | 88.9 | 114 |  | -5.11
9 | CCCc1cc(C)[nH]c(=O)c1CNC(=O)c1cc(-c2ccnc(N3CCN(C)CC3)c2)cc2c1cnn2C(C)C [GSK343] | -4.7 | -4.78 | -4.6 | -4.59 | -4.81 | -4.59 | -4.81 | -4.74 | -4.6 | -4.88 | -4.63 |  | -4.69 | 98.2 | 49.9 | 122 | 66.2 | 88.2 | 78.7 | 12.1 | 102 | 99.1 | 56.1 | 90.7 | 66.3 | 58.3 | 71.6 | 12.3 | 51.3 | -4.57 | -4.59
10 | CC(C)C[C@H](NC(=O)[C@H](CCc1ccccc1)NC(=O)CN1CCOCC1)C(=O)N[C@@H](Cc1ccccc1)C(=O)N[C@@H](CC(C)C)C(=O)[C@@]1(C)CO1 [CARFILZOMIB] | -6.77 | -7.54 | -5.73 | -6.2 |  | -6.68 | -6.6 | -7 | -6.37 | -8.68 | -7.29 | -6.36 | -7.24 | 213 | 148 | 294 | 259 | 344 | 171 | 239 | 649 | 266 | 280 | 343 | 217 | 379 | 303 | 249 | 320 | -5.36 | -6.71
11 | CCOc1cc(C(C)(C)C)ccc1C1=N[C@@](C)(c2ccc(Cl)cc2)[C@@](C)(c2ccc(Cl)cc2)N1C(=O)N1CCN(CCCS(C)(=O)=O)CC1 [RG7112] | -4.64 | -4.78 | -4.8 | -4.85 | -6.49 |  | -5.4 | -5.7 | -4.71 | -4.85 | -4.82 | -4.8 | -4.86 | 76 | 77.5 | 204 | 30.5 | 77.8 | 85.4 | 82.1 | 288 | 169 | 176 | 204 | 61.6 | 69.8 | 73.2 | 91.7 | 47.8 | -4.75 | -4.87
12 | COCC1(CO)C(=O)C2CCN1CC2 (stereo not drawn) [APR-246] | -4.72 | -4.71 | -4.85 |  | -5.41 | -4.79 |  | -4.82 | -4.81 | -4.91 | -4.79 | -4.81 | -4.81 | 72 | 74.7 | 74.8 | 72.7 | 69.5 | 90.6 | 13 | 177 | 87.7 | 8.03 | 94.2 | 73.1 | 82.7 | 79.7 | 87.2 | 85.3 | -4.77 | -4.72
